According to paper PMC8270338, “Exploring New Scaffolds for the Dual Inhibition of HIV-1 RT Polymerase and Ribonuclease Associated Functions” (Molecules, 2021):
Structures can show the parent of a compound that is named as a salt. Where two headings read alike, the source gives them in different places.

Experiments:
[1] = target: T1, HIV-1 RT-associated RNA-dependent DNA-polymerase (RDDP) (Human immunodeficiency virus type 1 group M subtype B, UniProt P04585); test: biochemical; set-up: species or system HIV-1 group M subtype B
T1 construct: The full length HIV-1 RT group M subtype B was expressed and purified; made in house
Procedure: The HIV-1 RT-associated RNA-Dependent DP activity was measured as previously described. […] The enzymatic reaction was stopped by the addition of EDTA.

[2] = target: T2, HIV-1 RT-associated RNase H (Human immunodeficiency virus type 1 group M subtype B, UniProt P04585); test: HIV-1 RT-associated DNA polymerase-independent RNase H activity determination; type: biochemical, HIV-1 group M subtype B; conditions: full length HIV-1 wt RT, no pre-incubation with the enzyme, 1 h at 37 °C; concentration reducing RNase H activity by 50%
T2 construct: The full length HIV-1 RT group M subtype B was expressed and purified; made in house
Procedure: The full length HIV-1 RT group M subtype B was expressed and purified as previously described. The HIV RT-associated RNase H activity was measured as described. […] Reactions were stopped by the addition of EDTA and products were measured with a Perkin–Elmer Victor 3 multilabel counter plate reader (Waltham, MA, USA) at excitation–emission wavelength of 490/528 nm (Table 1).

| SMILES | IC50 ([1]; read-out: RDDP IC50) | IC50 [2] | IC50 [1] | melting point |
| --- | --- | --- | --- | --- |
| COc1ccc(-c2ccccc2)cc1C=NNc1nc(-c2ccc(Cl)c(Cl)c2)cs1 [EMAC2057, 4-(3,4-dichlorophenyl)-2-[2-[(2-methoxy-5-phenylphenyl)methylidene]hydrazin-1-yl]-1,3-thiazole bromide] | 88 ± 12 µM | 57 ± 5 µM | – | – |
| COc1ccc(-c2ccccc2C(N)=O)cc1/C=N/Nc1nc(-c2ccc([N+](=O)[O-])cc2)cs1 [EMAC2063, 2-{3-[(2-{4-[4-nitrophenyl]-1,3-thiazol-2-yl}hydrazin-1-ylidene)methyl]-4-methoxyphenyl}benzamide bromide] | – | 4.5 ± 0.5 µM | 8 µM | – |
| COc1ccc(-c2ccccc2Br)cc1C=NNc1nc(-c2ccc(Cl)c(Cl)c2)cs1 [EMAC2065, 2-{[5-(2-bromophenyl)-2-methoxyphenyl]methylidene}hydrazin-1-yl]-4-(3,4-dicholophenyl)-1,3-thiazole bromide] | 53.5 ± 15.5 µM | 15 ± 1 µM | – | – |
| COc1ccc(-c2ccccc2)cc1C=NNc1nc(-c2ccc([N+](=O)[O-])cc2)cs1 [EMAC2059, 4-(4-nitrophenyl)-2-[2-[(2-methoxy-5-phenylphenyl)methylidene]hydrazin-1-yl]-1,3-thiazole bromide] | 39.5 ± 11.5 µM | 12.8 ± 4.3 µM | – | – |
| COc1ccc(-c2csc(N/N=C/c3cc(-c4ccccc4C(N)=O)ccc3OC)n2)cc1 [EMAC2060, 2-{4-methoxy-3-[(1E)-{2-[4-(4-methoxyphenyl)-1,3-thiazol-2-yl]hydrazin-1-ylidene}methyl]phenyl}benzamide bromide] | 27 ± 1 µM | 21.5 ± 3.5 µM | – | – |
| COc1ccc(-c2ccc(F)cc2)cc1C=NNc1nc(-c2ccc(Cl)cc2)cs1 [EMAC2070, 4-(4-chlorophenyl)-2-[-2-{[5-(4-fluorophenyl)-2-methoxyphenyl]methylidene}hydrazin-1-yl]-1,3-thiazole bromide] | 59 ± 6 µM | 55.5 ± 1.5 µM | – | – |
| COc1ccc(-c2ccccc2)cc1C=NNc1nc(-c2cccc(Cl)c2)cs1 [EMAC2058, 4-(3-chlorophenyl)-2-[2-[(2-methoxy-5-phenylphenyl)methylidene]hydrazin-1-yl]-1,3-thiazole bromide] | 56.5 ± 9.5 µM | 46 ± 1 µM | – | – |
| COc1ccc(-c2ccccc2Br)cc1C=NNc1nc(-c2ccc(Cl)cc2)cs1 [EMAC2066, 2-{[5-(2-bromophenyl)-2-methoxyphenyl]methylidene}hydrazin-1-yl]-4-(4-cholophenyl)-1,3-thiazole bromide] | 71.5 ± 6.5 µM | 47 ± 3 µM | – | – |
| COc1ccc(-c2ccccc2C(N)=O)cc1C=NNc1nc(-c2ccc(Cl)cc2)cs1 [EMAC2062, 2-{3-[{2-[4-(4-chlorophenyl)-1,3-thiazol-2-yl]hydrazin-1-ylidene}methyl]-4-methoxyphenyl}benzamide bromide] | 17 ± 2 µM | 8 ± 2 µM | – | – |
| COc1ccc(-c2ccc(F)cc2)cc1C=NNc1nc(-c2ccc(Cl)c(Cl)c2)cs1 [EMAC2069, 4-(3,4-dichlorophenyl)-2-[-2-{[5-(4-fluorophenyl)-2-methoxyphenyl]methylidene}hydrazin-1-yl]-1,3-thiazole bromide] | 66 ± 2 µM | 52.5 ± 10.5 µM | – | – |
| COc1ccc(-c2ccc(F)cc2)cc1C=NNc1nc(-c2ccc([N+](=O)[O-])cc2)cs1 [EMAC2071, [(4-{2-[2-{[5-(4-fluorophenyl)-2-methoxyphenyl]methylidene}hydrazin-1-yl]-1,3-thiazol-4-yl}phenyl)nitroso]oxidanol bromide] | 47.5 ± 11.5 µM | 19 ± 1 µM | – | – |
| COc1ccc(-c2csc(NN=Cc3cc(-c4ccc(F)cc4)ccc3OC)n2)cc1 [EMAC2068, 2-[2-{[5-(4-fluorophenyl)-2-methoxyphenyl]methylidene}hydrazin-1-yl]-4-(4-methoxyphenyl)-1,3-thiazole bromide] | 61.5 ± 8.5 µM | 29.5 ± 3.5 µM | – | – |
| COc1ccc(-c2ccccc2Br)cc1C=NNc1nc(-c2ccc([N+](=O)[O-])cc2)cs1 [EMAC2067, 2-{[5-(2-bromophenyl)-2-methoxyphenyl]methylidene}hydrazin-1-yl]-4-(4-nitrophenyl)-1,3-thiazole bromide] | 30 ± 3 µM | 27 ± 5 µM | – | – |
| COc1ccc(-c2csc(NN=Cc3cc(-c4ccccc4)ccc3OC)n2)cc1 [EMAC2056, 2-[2-[(2-Methoxy-5-Phenylphenyl)methylidene]hydrazin-1-yl]-4-(4-Methoxyphenyl)-1,3-Thiazole Bromide] | 36 ± 5 µM | 19.5 ± 5.5 µM | – | – |
| COc1ccc(-c2ccccc2C(N)=O)cc1C=NNc1nc(-c2ccc(Cl)c(Cl)c2)cs1 [EMAC2061, 2-{3-[{2-[4-(3,4-dichlorophenyl)-1,3-thiazol-2-yl]hydrazin-1-ylidene}methyl]-4-methoxyphenyl}benzamide bromide] | 19.5 ± 0.5 µM | 6.5 ± 2.5 µM | – | – |
| COc1ccc(-c2csc(NN=Cc3cc(-c4ccccc4Br)ccc3OC)n2)cc1 [EMAC2064, 2-{[5-(2-bromophenyl)-2-methoxyphenyl]methylidene}hydrazin-1-yl]-4-(4-methoxyphenyl)-1,3-thiazole bromide] | 32.5 ± 2.5 µM | 13 ± 4 µM | – | – |
| COc1ccc(-c2ccccc2C(N)=O)cc1/C=N/Nc1nc(-c2ccc([N+](=O)[O-])cc2)cs1 (as salt: bromide) [EMAC2063, 2-{3-[(2-{4-[4-nitrophenyl]-1,3-thiazol-2-yl}hydrazin-1-ylidene)methyl]-4-methoxyphenyl}benzamide bromide] | – | – | – | 208 °C (dec.) |
